Measured values as given in US10023592B2, “Bromodomain inhibitors” (Celgene Quanticel Research, Inc., priority 2013, dated 2018).

Key:
[1] = system: HL-60, human proleukemia cells; test: Cell-MTS proliferation assay, HL-60; type: cell-based; details: 168 hr
Description: (§1) The Cell-MTS assay is a 7-day plate-based colorimetric assay which quantifies the amount of newly generated NADH in the presence or absence of test compound. The NADH level is used for the quantification of cancer cell proliferation.
(§2) Established cancer cell lines with a variety of driving mutations were obtained from American Type Culture Collection (ATCC) and routinely passaged according to ATCC protocols. For routine assay, these cells were seeded at densities which enabled ˜90% confluence after 7 days of culture. Raji, human Burkitts lymphoma cells, (cMYC) were seeded at 15,000 cells per 96-well. HL-60, human proleukemia cells, (NRAS, p16, p53, c-Myc amplified) were seeded at 5,000 cells per 96-well. NCI-H460, human non-small cell lung cancer cells, (KRAS, PIK3CA, STLK11, p16) were seeded at 3,000 cells per 96-well. 24 hr after plating, cells received an 11-point dilution of test compound with final concentration ranges from 100 μM to 2.0 nM. […] At the end of this incubation period, 80 μL of media is removed and 20 μL of CellTiter 96® AQueous Non-Radioactive Cell Proliferation Assay soln (Promega) was added. The cells were incubated until the OD490 was >0.6. IC50 values were calculated using the IDBS XLfit software package and include background subtracted OD490 values and normalization to DMSO controls. Cellular proliferation IC50 values were uploaded and archived using the Chem Biography Platform.

BRD4(BD1) = BRD4(BD1) (Homo sapiens (Human), UniProt O60885); test: In vitro enzyme inhibition assay (BRD4 AlphaScreen); type: binding
How it was run: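 His-tagged BRD4 tested by AlphaScreen for binding of biotinylated H4K5/8/12/16-tetraacetyl peptide. After 20 min at room temperature, streptavidin donor and nickel chelate acceptor beads added (5 μg/mL final each). IC50 determined.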

[2] = system: NCI-H460, human non-small cell lung cancer cells; test: Cell-MTS proliferation assay, NCI-H460; type: cell-based; details: 168 hr
Description: as §1, §2

[3] = system: Raji, human Burkitts lymphoma cells; test: Cell-MTS proliferation assay, Raji; type: cell-based; details: 168 hr
Description: as §1, §2

[4] = Homo sapiens, HL-60, Cell-MTS, class symbols A/B/C
[5] = Homo sapiens, NCI-H460, Cell-MTS, class symbols A/B/C
[6] = Homo sapiens, Raji, Cell-MTS, class symbols A/B/C
[7] = Homo sapiens, HL-60, Cell-MTS proliferation
[8] = in vitro enzyme inhibition assay
[9] = Homo sapiens, NCI-H460, Cell-MTS proliferation
[10] = Homo sapiens, Raji, Cell-MTS proliferation
[11] = Homo sapiens, Cell-MTS proliferation, HL-60 cells
[12] = Homo sapiens, Cell-MTS proliferation, NCI-H460 cells
[13] = Homo sapiens, Cell-MTS proliferation, Raji cells

IC50 [1, 7] [nM] | IC50 (BRD4(BD1); [8]) [nM] | IC50 [2, 9] [nM] | IC50 [3, 10] [nM] | IC50 [1, 11] [nM] | IC50 [2, 12] [nM] | IC50 [3, 13] [nM] | Molecule | other results
– | – | – | – | – | – | – | Cc1cnn(-c2ccc3c(=O)n(C)cc(-c4cc(S(C)(=O)=O)ccc4OCC4CC4)c3c2)c1 [Example 128, 4-[2-(cyclopropylmethoxy)-5-methylsulfonylphenyl]-2-methyl-6-(4-methylpyrazol-1-yl)isoquinolin-1-one] | IC50 [1, 4]: < 500 nM; IC50 (BRD4(BD1); class symbols A/B/C): < 500 nM; IC50 [2, 5]: > 5000 nM; IC50 [3, 6]: < 500 nM
< 500 | < 500 | > 5000 | < 500 | – | – | – | CCS(=O)(=O)c1ccc(O[C@H]2CC[C@H](O)CC2)c(-c2cn(C)c(=O)c3ccccc23)c1 [Example 181, 4-[5-ethylsulfonyl-2-(trans-4-hydroxycyclohexyl)oxyphenyl]-2-methylisoquinolin-1-one] | –
– | < 500 | – | – | 500 to 5000 | > 5000 | > 5000 | Cn1cc(-c2cn(CS(C)(=O)=O)c(=O)cc2OCC2CC2)ccc1=O [Example 381, 4-(cyclopropylmethoxy)-5-(1-methyl-6-oxopyridin-3-yl)-1-(methylsulfonylmethyl)pyridin-2-one] | –
– | < 500 | – | – | < 500 | > 5000 | < 500 | Cc1cc(-c2cc(NS(C)(=O)=O)ccc2OC2CCCOC2)cn(C)c1=O (stereo not shown) [Example 446, N-[3-(1,5-dimethyl-6-oxopyridin-3-yl)-4-(oxan-3-yloxy)phenyl] methanesulfonamide] | –
< 500 | < 500 | > 5000 | < 500 | – | – | – | CC#CCOc1ccc(S(=O)(=O)CC)cc1-c1cn(C)c(=O)c2ccccc12 [Example 185, 4-(2-but-2-ynoxy-5-ethylsulfonylphenyl)-2-methylisoquinolin-1-one] | –
– | < 500 | – | – | < 500 | > 5000 | 500 to 5000 | Cc1cc(-c2cc(S(C)(=O)=O)ccc2Nc2ccc(F)cc2F)cn(C)c1=O [Example 398, 5-[2-(2,4-difluoroanilino)-5-methylsulfonylphenyl]-1,3-dimethylpyridin-2-one] | –
> 5000 | > 5000 | > 5000 | > 5000 | – | – | – | CCC(=O)Nc1ccc(S(C)(=O)=O)cc1-c1cn(C)c(=O)c2ccccc12 [Example 221, N-[2-(2-methyl-1-oxoisoquinolin-4-yl)-4-methylsulfonylphenyl]propanamide] | –
< 500 | < 500 | > 5000 | < 500 | – | – | – | CCS(=O)(=O)c1cc(-c2cn(C)c(=O)c3ccccc23)c(OCC2CC2)cn1 [Example 207, 4-[5-(cyclopropylmethoxy)-2-ethylsulfonylpyridin-4-yl]-2-methylisoquinolin-1-one] | –
– | – | – | – | – | – | – | CCS(=O)(=O)Nc1cccc(-c2cn(C)c(=O)c3ccc(-c4ccc(C)nc4)cc23)c1 [Example 72, N-[3-[2-methyl-6-(6-methylpyridin-3-yl)-1-oxoisoquinolin-4-yl]phenyl]ethanesulfonamide] | IC50 [1, 4]: < 500 nM; IC50 (BRD4(BD1); class symbols A/B/C): < 500 nM; IC50 [2, 5]: 500 to 5000 nM; IC50 [3, 6]: < 500 nM
< 500 | < 500 | > 5000 | < 500 | – | – | – | COc1ccc2c(=O)n(C)cc(-c3cc(S(C)(=O)=O)ccc3OCC3CC3)c2c1 [Example 198, 4-(2-(cyclopropylmethoxy)-5-(methylsulfonyl)phenyl)-6-methoxy-2-methylisoquinolin-1(2H)-one] | –
500 to 5000 | < 500 | > 5000 | 500 to 5000 | – | – | – | CCS(=O)(=O)Nc1ncc(Oc2ccc(F)cc2F)c(-c2cn(C)c(=O)c3c2CCCC3)n1 [Example 173, N-[5-(2,4-difluorophenoxy)-4-(2-methyl-1-oxo-5,6,7,8-tetrahydroisoquinolin-4-yl)pyrimidin-2-yl]ethanesulfonamide] | –
< 500 | < 500 | > 5000 | < 500 | – | – | – | Cn1cc(-c2cc(S(C)(=O)=O)cnc2OCC2CC2)c2ccccc2c1=O [Example 321, 4-[2-(cyclopropylmethoxy)-5-methylsulfonylpyridin-3-yl]-2-methylisoquinolin-1-one] | –
– | < 500 | – | – | 500 to 5000 | > 5000 | 500 to 5000 | COCC1COc2c(cc(S(C)(=O)=O)cc2-c2cn(C)c(=O)c3ccccc23)O1 (stereo not shown) [Example 501, 4-[2-(methoxymethyl)-7-methylsulfonyl-2,3-dihydro-1,4-benzodioxin-5-yl]-2-methylisoquinolin-1-one] | –
– | < 500 | – | – | < 500 | > 5000 | < 500 | CN(C)c1cc(-c2cc(NS(C)(=O)=O)ccc2Oc2ccc(F)cc2F)cn(C)c1=O [Example 463, N-[4-(2,4-difluorophenoxy)-3-[5-(dimethylamino)-1-methyl-6-oxopyridin-3-yl]phenyl]methanesulfonamide] | –
– | < 500 | – | – | < 500 | > 5000 | < 500 | COc1cc(-c2cc(CS(C)(=O)=O)ccc2Oc2ccc(F)cc2F)cn(C)c1=O [Example 400, 5-[2-(2,4-difluorophenoxy)-5-(methylsulfonylmethyl)phenyl]-3-methoxy-1-methylpyridin-2-one] | –
– | < 500 | – | – | < 500 | > 5000 | < 500 | CCS(=O)(=O)Nc1ccc(OC2CCOCC2)c(-c2cc(C)c(=O)n(C)c2)c1 [Example 441, N-[3-(1,5-dimethyl-6-oxopyridin-3-yl)-4-(oxan-4-yloxy)phenyl]ethanesulfonamide] | –
– | < 500 | – | – | < 500 | > 5000 | < 500 | Cn1cc(-c2cc(S(C)(=O)=O)ccc2OCC2CC2)c2occc2c1=O [Example 377, 7-[2-(cyclopropylmethoxy)-5-methylsulfonylphenyl]-5-methylfuro[3,2-c]pyridin-4-one] | –
> 5000 | 500 to 5000 | > 5000 | > 5000 | – | – | – | CCc1ccc(S(C)(=O)=O)cc1-c1ccc(=O)n(C)c1 [Example 312, 5-(2-ethyl-5-methylsulfonylphenyl)-1-methylpyridin-2-one] | –
– | – | – | – | – | – | – | Cc1cc(=O)n(C)cc1-c1cc(NS(C)(=O)=O)ccc1Oc1ccc(F)cc1F [Example 101, N-[4-(2,4-difluorophenoxy)-3-(1,4-dimethyl-6-oxopyridin-3-yl)phenyl]methanesulfonamide] | IC50 [1, 4]: < 500 nM; IC50 (BRD4(BD1); class symbols A/B/C): < 500 nM; IC50 [2, 5]: > 5000 nM; IC50 [3, 6]: < 500 nM
500 to 5000 | < 500 | > 5000 | 500 to 5000 | – | – | – | CCS(=O)(=O)Nc1ccnc(-c2cn(C)c(=O)c3ccc(-c4cnn(C)c4)cc23)c1 [Example 213, N-[2-[2-methyl-6-(1-methylpyrazol-4-yl)-1-oxoisoquinolin-4-yl]pyridin-4-yl]ethanesulfonamide] | –
– | < 500 | – | – | < 500 | > 5000 | < 500 | Cc1cc(-c2cc(CS(C)(=O)=O)ccc2Oc2ccc(F)cc2F)cn(C)c1=O [Example 455, 5-[2-(2,4-difluorophenoxy)-5-(methylsulfonylmethyl)phenyl]-1,3-dimethylpyridin-2-one] | –
– | – | – | – | – | – | – | COc1cc(F)c(CS(C)(=O)=O)cc1-c1cn(C)c(=O)c2ccc(-c3cnn(C)c3)cc12 [Example 88, 4-[4-fluoro-2-methoxy-5-(methylsulfonylmethyl)phenyl]-2-methyl-6-(1-methylpyrazol-4-yl)isoquinolin-1-one] | IC50 [1, 4]: < 500 nM; IC50 (BRD4(BD1); class symbols A/B/C): < 500 nM; IC50 [2, 5]: > 5000 nM; IC50 [3, 6]: < 500 nM
– | < 500 | – | – | < 500 | > 5000 | < 500 | CCS(=O)(=O)Cc1ccc(OCC(F)(F)F)c(-c2cn(C)c(=O)c3ccccc23)c1 [Example 487, 4-[5-(ethylsulfonylmethyl)-2-(2,2,2-trifluoroethoxy)phenyl]-2-methylisoquinolin-1-one] | –

Molecule | IC50 [1, 7] [nM] | IC50 (BRD4(BD1); [8]) [nM] | IC50 [2, 9] [nM] | IC50 [3, 10] [nM] | IC50 [1, 11] [nM] | IC50 [2, 12] [nM] | IC50 [3, 13] [nM] | other results
4-[5-(cyclopropylmethoxy)-2-methylsulfonylpyridin-4-yl]-7-fluoro-2-methylisoquinolin-1-one [Example 203] | – | < 500 | – | – | – | – | – | IC50 ([1]; Cell-MTS proliferation): < 500 nM; IC50 ([2]; Cell-MTS proliferation): > 5000 nM; IC50 ([3]; Cell-MTS proliferation): < 500 nM
Cc1cc(-c2cc(S(C)(=O)=O)ccc2OCC2CC2)cn(CC(C)C)c1=O [Example 243, 5-[2-(cyclopropylmethoxy)-5-methylsulfonylphenyl]-3-methyl-1-(2-methylpropyl)pyridin-2-one] | 500 to 5000 | 500 to 5000 | > 5000 | > 5000 | – | – | – | –
